How the values were obtained:
[1] = target: T1, Macrophage colony-stimulating factor 1 receptor (Homo sapiens, UniProt P07333); assay: Inhibition of ATP-induced autophosphorylation of cFMS tyrosine kinase
[2] = target: T1, Macrophage colony-stimulating factor 1 receptor; assay: Inhibition of ATP-induced autophosphorylation of cFMS tyrosine kinase in HEK 293 cells; format: cell-based, HEK293
[3] = Metabolic stability in human liver microsomes after 10 mins; format: ADME, Microsome; conditions: read-out: Stability

T1 sequence (P07333 whole entry): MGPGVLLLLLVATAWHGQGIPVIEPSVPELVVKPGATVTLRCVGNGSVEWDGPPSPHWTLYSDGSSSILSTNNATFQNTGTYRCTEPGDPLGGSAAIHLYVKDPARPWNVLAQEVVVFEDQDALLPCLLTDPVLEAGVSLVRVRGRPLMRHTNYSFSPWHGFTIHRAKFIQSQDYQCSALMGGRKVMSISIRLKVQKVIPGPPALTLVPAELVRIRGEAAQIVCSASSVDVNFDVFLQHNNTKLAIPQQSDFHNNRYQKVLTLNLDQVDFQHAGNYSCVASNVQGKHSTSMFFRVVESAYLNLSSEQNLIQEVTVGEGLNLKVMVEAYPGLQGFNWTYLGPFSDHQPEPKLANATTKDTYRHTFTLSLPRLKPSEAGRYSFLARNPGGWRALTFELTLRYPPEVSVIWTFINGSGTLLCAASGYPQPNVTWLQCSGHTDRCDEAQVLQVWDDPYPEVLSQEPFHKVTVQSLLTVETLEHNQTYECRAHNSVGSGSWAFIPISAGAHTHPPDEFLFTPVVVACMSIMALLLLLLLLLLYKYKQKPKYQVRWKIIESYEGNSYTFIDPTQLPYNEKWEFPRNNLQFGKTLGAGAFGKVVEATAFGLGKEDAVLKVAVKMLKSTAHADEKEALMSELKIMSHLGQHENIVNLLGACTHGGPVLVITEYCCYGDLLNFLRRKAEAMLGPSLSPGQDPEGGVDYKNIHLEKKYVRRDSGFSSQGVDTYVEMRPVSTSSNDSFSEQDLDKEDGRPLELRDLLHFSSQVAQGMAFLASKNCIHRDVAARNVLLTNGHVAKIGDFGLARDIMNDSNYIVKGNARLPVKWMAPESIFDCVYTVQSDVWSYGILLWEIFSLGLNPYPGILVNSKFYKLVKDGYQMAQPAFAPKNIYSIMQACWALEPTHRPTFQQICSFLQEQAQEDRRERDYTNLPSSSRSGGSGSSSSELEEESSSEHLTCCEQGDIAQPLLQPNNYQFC

Structure (SMILES) | IC50 [1] [nM] | IC50 [2] [nM] | remaining at 10 min [3] [%]
CCCN(CCC)c1ccccc1NC(=O)c1ccc([N+](=O)[O-])o1 | > 10000 |  | 
O=C(Nc1ccccc1Nc1ccccc1)c1ccc([N+](=O)[O-])o1 | > 10000 |  | 
O=C(Nc1ccccc1N1CCC(O)CC1)c1ccc([N+](=O)[O-])o1 | 140 | 370 | 
O=C(Nc1ccccc1N1CCC1)c1ccc([N+](=O)[O-])o1 | > 10000 |  | 
O=C(Nc1ccccc1N1CCC(CO)CC1)c1ccc([N+](=O)[O-])o1 | 130 | 1400 | 
O=C(O)c1ccc(C(=O)Nc2ccccc2N2CCCCC2)o1 | > 10000 |  | 
O=C(Nc1ccccc1N1CCCCC1)c1ccc(C(F)(F)F)o1 | > 10000 |  | 
N#Cc1ccc(C(=O)Nc2ccccc2N2CCCCC2)o1 | 36 | 370 | 
N#Cc1ccc(C(=O)Nc2cc(O)ccc2N2CCCCC2)o1 | 17 | 2700 | 
COc1ccc(N2CCCCC2)c(NC(=O)c2ccc(C#N)o2)c1 | 90 | 960 | 
N#Cc1ccc(C(=O)Nc2cc(CN)ccc2N2CCCCC2)o1 | 200 | 3100 | 
N#Cc1ccc(C(=O)Nc2cc(C=O)ccc2N2CCCCC2)o1 | 37 | 330 | 
N#Cc1ccc(C(=O)Nc2cc(C(=O)O)ccc2N2CCCCC2)o1 | > 2000 | > 2000 | 
N#Cc1ccc(C(=O)Nc2cc(N3CCCCC3)ccc2N2CCCCC2)o1 | 17 | 76 | 
O=C(Nc1ccccc1N1CCCC1)c1ccc([N+](=O)[O-])o1 | 1900 |  | 
CS(=O)(=O)NCc1ccc(N2CCCCC2)c(NC(=O)c2ccc(C#N)o2)c1 | 37 | 310 | 
O=C(Nc1ccccc1N1C=CC=CC=C1)c1ccc([N+](=O)[O-])o1 | 260 | 2000 | 
CC1CCCCN1c1ccccc1NC(=O)c1ccc([N+](=O)[O-])o1 (stereo unspecified) | 720 |  | 
O=C(Nc1ccccc1N1CCCCC1)c1ccco1 | > 10000 |  | 
O=C(Nc1ccccc1N1CCCCC1)c1ccc(Nc2ccccc2)o1 | > 10000 |  | 
O=C(Nc1ccccc1N1CCCCC1)c1ccc(-c2ccccc2)o1 | > 10000 |  | 
O=C(Nc1ccccc1N1CCCCC1)c1ccc(Br)o1 | 4400 |  | 

Structure (SMILES) | IC50 [1] [nM] | IC50 [2] [nM] | remaining at 10 min [3] [%]
O=C(Nc1ccccc1N1CCCCC1)c1ccc(Cl)o1 | 1900 |  | 
O=C(Nc1ccccc1N1CCC(CCO)CC1)c1ccc([N+](=O)[O-])o1 | 43 | 230 | 
O=C(Nc1ccccc1N1CCOCC1)c1ccc([N+](=O)[O-])o1 | 1100 |  | 
O=C(Nc1ccccc1N1CCNCC1)c1ccc([N+](=O)[O-])o1 | > 10000 |  | 
CCCN(CC)c1ccccc1NC(=O)c1ccc([N+](=O)[O-])o1 | > 10000 |  | 
CC1CCN(c2ccccc2NC(=O)c2ccc([N+](=O)[O-])o2)CC1 | 78 | 300 | 100
N#Cc1ccc(C(=O)Nc2cc(COCC(O)CO)ccc2N2CCCCC2)o1 (stereo unspecified) | 19 | 170 | 
O=C(Nc1ccccc1N1CCCCC1)c1cc([N+](=O)[O-])c[nH]1 | 47 | 180 | 
N#Cc1c[nH]c(C(=O)Nc2ccccc2N2CCCCC2)c1 | 47 | 150 | 
O=C(Nc1ccccc1N1CCC(CO)C1)c1ccc([N+](=O)[O-])o1 (stereo unspecified) | > 10000 |  | 
O=Cc1ccc(C(=O)Nc2ccccc2N2CCCCC2)o1 | 1100 |  | 
O=C(Nc1ccccc1N1CCC(O)C1)c1ccc([N+](=O)[O-])o1 (stereo unspecified) | > 10000 |  | 
N#Cc1ccc(C(=O)Nc2cc(CO)ccc2N2CCCCC2)o1 | 25 | 190 | 25
N#Cc1ccc(N2CCCCC2)c(NC(=O)c2ccc(C#N)o2)c1 | 120 | 750 | 
O=C(Nc1ccccc1N1CCN(c2ccccc2)CC1)c1ccc([N+](=O)[O-])o1 | > 10000 |  | 
NC(=O)c1ccc(C(=O)Nc2ccccc2N2CCCCC2)o1 | > 10000 |  | 
N#Cc1ccc(C(=O)Nc2cc(CN=C(N)N)ccc2N2CCCCC2)o1 | 34 | 2600 | 
CC1CCN(c2ccc(CO)cc2NC(=O)c2ccc(C#N)o2)CC1 |  |  | 83
Nc1ccc(C(=O)Nc2ccccc2N2CCCCC2)o1 | > 10000 |  | 
CC1CC(C)CN(c2ccccc2NC(=O)c2ccc([N+](=O)[O-])o2)C1 (stereo unspecified) | 5300 |  | 
O=C(Nc1ccccc1N1CCCCC1)c1ccc([N+](=O)[O-])o1 |  |  | 41
CC1CCCN(c2ccccc2NC(=O)c2ccc([N+](=O)[O-])o2)C1 (stereo unspecified) | 380 | 2200 | 
